Assay: RP, Waters ACQUITY UPLC HSS C18, 100 × 2.1 mm, 1.7 µm, 40 °C, 0.35 mL/min, estimated dead time 0.63 min; A: water + 0.1% formic acid; B: methanol + 0.1% formic acid; gradient (min/%B) 0/0.5 4/70 4.5/98 5.4/98
Settings: stereoisomer not certain

Point of comparison: `O=C(O)CCCCCCCCC(=O)O`, LC retention time 4.96 min. Against it:
- O=P(O)(O)OCC1OC(O)C(O)C(O)C1O (stereo not given) — 6.3-fold lower, 0.783 min
- CCC1CCC(=O)O1 (stereo not given) — within 1.5-fold, 3.33 min
- O=C(O)c1cc(O)c(O)c(O)c1 — 2.6-fold lower, 1.88 min
- CCOC(=O)CC(=O)OCC — within 1.5-fold, 4.32 min
- Nc1ncnc2c1ncn2C1OC(CSCCC(N)C(=O)O)C(O)C1O (stereo not given) — 2.9-fold lower, 1.71 min
- CCCC(=O)NCC(=O)O — 2.1-fold lower, 2.36 min
- CC(O)(CC(=O)O)CC(=O)O — 2.6-fold lower, 1.9 min
- O=C(O)CC(O)(CC(=O)O)C(=O)O — 3.5-fold lower, 1.43 min
- CCOC(=O)c1cncn1C(C)c1ccccc1 (stereo not given) — within 1.5-fold, 5.14 min
- CC12CC3CC(C)(C1)CC(N)(C3)C2 — within 1.5-fold, 4.42 min
- O=C1Cc2ccccc2N1 — within 1.5-fold, 3.76 min
- COC(=O)C1=C(C)NC(C)=C(C(=O)OCCN(C)Cc2ccccc2)C1c1cccc([N+](=O)[O-])c1 (stereo not given) — within 1.5-fold, 4.6 min
- CN(C)CCc1ccccc1 — 1.9-fold lower, 2.61 min
- NCC(O)c1ccc(O)cc1 (stereo not given) — 5.5-fold lower, 0.904 min
- CC(=O)NC(Cc1ccc(O)cc1)C(=O)O (stereo not given) — 1.7-fold lower, 2.89 min
- O=Cc1ccccc1C(=O)O — 1.5-fold lower, 3.24 min
- C[N+](C)(C)CCOP(=O)([O-])OCC(O)CO (stereo not given) — 6.5-fold lower, 0.764 min
- CNCCc1ccccc1 — 1.9-fold lower, 2.61 min
- Cn1c(=O)[nH]c2[nH]c(=O)[nH]c2c1=O — 2.4-fold lower, 2.1 min
- Cc1occc(=O)c1O — 1.8-fold lower, 2.77 min
- CCc1occc(=O)c1O — within 1.5-fold, 3.63 min
- NC(CCC(=O)NC(CS)C(=O)NCC(=O)O)C(=O)O (stereo not given) — within 1.5-fold, 3.37 min
- COc1ccc(CCN(C)CCCC(C#N)(c2ccc(OC)c(OC)c2)C(C)C)cc1OC (stereo not given) — within 1.5-fold, 4.54 min
- CSc1ccc2c(c1)N(CCC1CCCCN1C)c1ccccc1S2 (stereo not given) — within 1.5-fold, 5.19 min
- Nc1ccn(C2OC(CO)C(OP(=O)(O)O)C2O)c(=O)n1 (stereo not given) — 5.4-fold lower, 0.912 min
- O=C(O)C=Cc1ccccc1 — within 1.5-fold, 4.92 min
- CCC1C(=O)OCC1Cc1cncn1C (stereo not given) — 2.4-fold lower, 2.04 min
- O=C(O)C=Cc1cccc(O)c1 — within 1.5-fold, 4.38 min
- CN1C(=O)CCC1c1cccnc1 (stereo not given) — 2.9-fold lower, 1.72 min
- O=C(O)Cc1ccc(O)cc1 — 1.5-fold lower, 3.23 min
- OC(CCN1CCCCC1)(c1ccccc1)C1CCCCC1 (stereo not given) — within 1.5-fold, 4.77 min
- CCCc1nc(C)c2c(=O)[nH]c(-c3cc(S(=O)(=O)N4CCN(CC)CC4)ccc3OCC)nn12 — within 1.5-fold, 4.47 min
- NC1CCSC1=O (stereo not given) — 5.7-fold lower, 0.873 min
- O=C(O)CCCC(O)C(=O)O (stereo not given) — 2.6-fold lower, 1.89 min
- O=C(O)CC(O)C(=O)O (stereo not given) — 2.6-fold lower, 1.92 min
- O=S(=O)(O)c1ccc(O)cc1 — 4.9-fold lower, 1.02 min
- CCC(=O)NCC(=O)O — 2.9-fold lower, 1.7 min
- Cn1c(=O)[nH]c2nc[nH]c2c1=O — 2.2-fold lower, 2.28 min
- NC(CCC(=O)O)C(=O)O (stereo not given) — 6.5-fold lower, 0.764 min
- NC(=O)c1ncn(C2OC(COP(=O)(O)O)C(O)C2O)c1N (stereo not given) — 4.5-fold lower, 1.11 min
- O=C(O)CC=CCC(=O)O — 1.9-fold lower, 2.67 min
- CC(=O)NC1C(O)CC(O)(C(=O)O)OC1C(O)C(O)CO (stereo not given) — 5.9-fold lower, 0.846 min
- O=Cc1ccc(O)c(O)c1 — 1.7-fold lower, 2.91 min
- Cn1cnc2c1c(=O)[nH]c(=O)n2C — 2-fold lower, 2.5 min
- CC(=O)OCC1OC(OC(C)=O)C(OC(C)=O)C(OC(C)=O)C1OC(C)=O (stereo not given) — within 1.5-fold, 4.5 min
- O=C(O)CCCCC(=O)O — 1.8-fold lower, 2.83 min
- O=C(O)CCCCCCCC(=O)O — within 1.5-fold, 4.56 min
- O=C(O)c1ccccc1O — 2.3-fold lower, 2.19 min
- O=C(O)C1OC(Oc2c[nH]c3ccccc23)C(O)C(O)C1O (stereo not given) — 1.7-fold lower, 2.98 min
- O=C(O)C#Cc1ccccc1 — within 1.5-fold, 4.39 min
- COc1ccc(C2Sc3ccccc3N(CCN(C)C)C(=O)C2OC(C)=O)cc1 (stereo not given) — within 1.5-fold, 4.53 min
- O=P(O)(O)OC(CO)CO — 6.1-fold lower, 0.815 min
- CN(C)CCC=C1c2ccccc2COc2ccccc21 — within 1.5-fold, 4.44 min
- CC(CCC(=O)O)CC(=O)O (stereo not given) — within 1.5-fold, 3.46 min
- C[N+](C)(C)[O-] — 6.5-fold lower, 0.766 min
- CC(=O)OCC(=O)C1(O)CCC2C3CCC4=CC(=O)CCC4(C)C3C(O)CC21C (stereo not given) — within 1.5-fold, 5.32 min
- NC(CS(=O)O)C(=O)O (stereo not given) — 6.5-fold lower, 0.768 min
- NC(=O)c1ccc[n+](C2OC(COP(=O)([O-])O)C(O)C2O)c1 (stereo not given) — 5.5-fold lower, 0.907 min
- COc1ccc(-c2oc3cc(O)ccc3c(=O)c2O)cc1O — within 1.5-fold, 3.62 min
- CN(C)CCC=C1c2ccccc2CCc2ccccc21 — within 1.5-fold, 4.85 min
- O=C(O)CNC(=O)c1ccccc1 — 1.5-fold lower, 3.23 min
- CC(=O)OCC[N+](C)(C)C — 5.5-fold lower, 0.907 min
- Nc1ccc(C(=O)O)c(O)c1 — 1.8-fold lower, 2.69 min
- CNCC(O)c1ccc(O)c(O)c1 (stereo not given) — 5.4-fold lower, 0.911 min
- O=c1ccc2ccccc2o1 — within 1.5-fold, 4.19 min
- O=C1CCNC(=O)N1 — 4.3-fold lower, 1.16 min
- O=C(O)C=Cc1cnc[nH]1 — 4.3-fold lower, 1.16 min
- Cc1ncc(C[n+]2csc(CCOP(=O)(O)O)c2C)c(N)n1 — 6.5-fold lower, 0.762 min
- OCC1OC(OC2C(CO)OC(O)C(O)C2O)C(O)C(O)C1O (stereo not given) — 6.2-fold lower, 0.801 min
- CCC(=O)OC(CC(=O)[O-])C[N+](C)(C)C (stereo not given) — 2.7-fold lower, 1.82 min
- COc1cc(C=CC(=O)O)ccc1O — within 1.5-fold, 3.87 min
- CNCCC(Oc1ccccc1C)c1ccccc1 (stereo not given) — within 1.5-fold, 4.72 min
- NC(CCS)C(=O)O (stereo not given) — 5.5-fold lower, 0.907 min
- CC(=O)Oc1cc(C)c(OC(C)=O)c2ccccc12 — within 1.5-fold, 5.35 min
- CC(C(=O)O)c1ccc(O)cc1 (stereo not given) — within 1.5-fold, 3.84 min
- CC(=O)CC(=O)CCC(=O)O — 1.5-fold lower, 3.3 min
- CCC1OC(=O)C(C)C(OC2CC(C)(OC)C(O)C(C)O2)C(C)C(OC2OC(C)CC(N(C)C)C2O)C(C)(O)CC(C)C(=O)C(C)C(O)C1(C)O (stereo not given) — within 1.5-fold, 4.82 min
- NC(Cc1ccc(O)cc1)C(=O)O (stereo not given) — 3-fold lower, 1.66 min
- CN(C)CCOC(C)(c1ccccc1)c1ccccn1 (stereo not given) — 1.6-fold lower, 3.14 min
- O=C(O)CCO — 6.3-fold lower, 0.782 min
- Nc1ccc(O)cc1 — 6-fold lower, 0.829 min
- CC1NCCc2cc(O)c(O)cc21 (stereo not given) — 3.1-fold lower, 1.61 min
- C[N+](C)(C)CCOP(=O)([O-])OP(=O)(O)OCC1OC(n2ccc(N)nc2=O)C(O)C1O (stereo not given) — 6-fold lower, 0.822 min
- CN=C(N)N — 6.4-fold lower, 0.776 min
- O=c1[nH]cnc2nc[nH]c12 — 3.6-fold lower, 1.38 min
- Cn1c(=O)c2c(ncn2C)n(C)c1=O — 1.5-fold lower, 3.23 min
- O=C(O)C=C(CC(=O)O)C(=O)O — 2.7-fold lower, 1.84 min
- Nc1cccc(C(=O)O)c1O — 3.2-fold lower, 1.54 min
- O=CNCC(=O)O — 5.4-fold lower, 0.919 min
- NCCc1ccc(O)c(O)c1 — 3.7-fold lower, 1.35 min
- COc1ccccc1C=CC=O — within 1.5-fold, 5.02 min
- CC(C)NCC(O)COc1cccc2ccccc12 (stereo not given) — within 1.5-fold, 4.33 min
- CN(C)C(=N)N=C(N)N — 5.9-fold lower, 0.844 min
- CC1OC(n2cnc3c(N)ncnc32)C(O)C1O (stereo not given) — 2.2-fold lower, 2.25 min
- NC(CSCC(=O)O)C(=O)O (stereo not given) — 5.7-fold lower, 0.873 min
- COC(=O)c1cccnc1 — 1.5-fold lower, 3.23 min
- NC(COP(=O)(O)O)C(=O)O (stereo not given) — 6.5-fold lower, 0.759 min
- CCCCCCCCCC(=O)OC(CC(=O)[O-])C[N+](C)(C)C (stereo not given) — within 1.5-fold, 5.25 min
- COc1ccc(C=O)cc1 — 5.5-fold lower, 0.897 min
- Nc1ccc(O)c(C(=O)O)c1 — 3.2-fold lower, 1.54 min
- Nc1nc2c(ncn2CCC(CO)CO)c(=O)[nH]1 — 2.6-fold lower, 1.88 min
- OCC(O)C(O)C(OC1OC(CO)C(O)C(O)C1O)C(O)CO (stereo not given) — within 1.5-fold, 4.47 min
- CCOC(=O)C(=O)C(C)C(=O)OCC (stereo not given) — within 1.5-fold, 4.56 min
- O=C(O)C(O)Cc1ccccc1 (stereo not given) — within 1.5-fold, 3.7 min
- O=c1cccc[nH]1 — 2.6-fold lower, 1.94 min
- COc1ccc2nc(S(=O)Cc3ncc(C)c(OC)c3C)[nH]c2c1 (stereo not given) — within 1.5-fold, 4.42 min
- CCCC(NC(C)C(=O)N1C(C(=O)O)CC2CCCCC21)C(=O)OCC (stereo not given) — within 1.5-fold, 4.66 min
- O=c1[nH]c(=O)c2ncn(C3OC(COP(=O)(O)O)C(O)C3O)c2[nH]1 (stereo not given) — 3.5-fold lower, 1.41 min
- CC(=CC(=O)O)CC(=O)O — 1.6-fold lower, 3.07 min
- O=C(O)C=Cc1c[nH]c2ccccc12 — within 1.5-fold, 4.59 min
- CC(CC(=O)O)CC(=O)O — 1.6-fold lower, 3.02 min
- Cn1ccc(=O)n(C)c1=O — 2.1-fold lower, 2.38 min
- NC(CCOC(=O)CCC(=O)O)C(=O)O (stereo not given) — 3.6-fold lower, 1.36 min
- CCN(Cc1ccncc1)C(=O)C(CO)c1ccccc1 (stereo not given) — within 1.5-fold, 3.36 min
- CN1CC(=O)NC1=O — 3.1-fold lower, 1.62 min
- NC(CS)C(=O)O (stereo not given) — 6.2-fold lower, 0.798 min
- CC(CC(=O)O)C(=O)O (stereo not given) — 1.9-fold lower, 2.58 min
- CCCOC(=O)c1cc(O)c(O)c(O)c1 — within 1.5-fold, 4.3 min
- NCC(O)c1ccc(O)c(O)c1 (stereo not given) — 6.2-fold lower, 0.806 min
- O=C(O)CCC(=O)O — 2.9-fold lower, 1.73 min
- C=Cc1ccc(O)cc1 — within 1.5-fold, 4.46 min
- Cn1cnc(=N)c2[nH]cnc21 — 5.8-fold lower, 0.862 min
- O=C(O)C=Cc1ccc(O)cc1 — within 1.5-fold, 3.76 min
- O=C(O)c1c[nH]c(=O)[nH]c1=O — 3.3-fold lower, 1.51 min
- O=C(O)CCCCC1SCC2NC(=O)NC21 (stereo not given) — within 1.5-fold, 3.42 min
- O=C(O)c1ccccc1C(=O)O — within 1.5-fold, 3.32 min
- NCc1ccccc1 — 2.5-fold lower, 1.99 min
- CN1C2CCC1CC(OC(=O)C(CO)c1ccccc1)C2 (stereo not given) — 1.5-fold lower, 3.22 min
- O=C(O)c1c[nH]c2ccccc12 — within 1.5-fold, 4.08 min
- O=C(O)C1(O)CC(O)C(O)C(O)C1 (stereo not given) — 5.7-fold lower, 0.867 min
- CC(CCC(=O)O)C(=O)O (stereo not given) — 1.7-fold lower, 2.97 min
- NCC(=O)CCC(=O)O — 6.5-fold lower, 0.768 min
- NC(N)=S — 5.9-fold lower, 0.847 min
- CC(=O)NC(CC(=O)O)C(=O)O (stereo not given) — 4-fold lower, 1.23 min
- CNC(CC(=O)O)C(=O)O (stereo not given) — 6.4-fold lower, 0.772 min
- CN(C)CCCN1c2ccccc2CCc2ccccc21 — within 1.5-fold, 4.77 min
- CC12CCC3c4ccc(O)cc4CCC3C1CC(O)C2O (stereo not given) — within 1.5-fold, 4.61 min
- O=C(O)C(O)C(O)C(O)C(=O)CO (stereo not given) — 6.1-fold lower, 0.808 min
- CCOC(=O)CCC(=O)OCC — within 1.5-fold, 4.61 min

— the RepoRT retention time repository (doi:10.1038/s41586-021-03707-9)
